Compound: COc1cc(-c2nn([C@H]3CC[C@H](N4CCN(C(C)=O)CC4)CC3)c3ncnc(N)c23)ccc1NC(=O)c1cc2ccccc2n1C + CC(=O)Nc1cccc(-n2c(=O)n(C3CC3)c(=O)c3c(Nc4ccc(I)cc4F)n(C)c(=O)c(C)c32)c1 [Trametinib] (partner 0.02 µM)
Experiment: relative viability (nuclei count vs DMSO), 5 days (fraction); higher = more cells survive
Settings: first compound 0.128 µM
How it was run: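 Each reported value is a median over duplicate plates. It expresses relative viability: treated-well nuclei count divided by vehicle-well nuclei count. Lung cancer cell lines in 1536-well plates were dosed by pin tool a day after seeding, alone with one drug or with a fixed anchor-drug dose plus five library-drug doses (not always all listed) in √10 steps, and nuclei were counted after 5 days.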

Cell Line | relative viability
NCI-H460 | 0.148
NCI-H2347 | 0.263
SK-LU-1 | 0.432
NCI-H1395 | 0.967
201T | 0.695
NCI-H1915 | 0.301
HCC-827 | 0.525
LXF-289 | 0.692
NCI-H23 | 0.281
NCI-H647 | 0.333
CAL-12T | 0.349
NCI-H1651 | 0.79
EPLC-272H | 0.278
NCI-H2228 | 0.539
NCI-H1792 | 0.401
NCI-H1355 | 0.387
NCI-H3122 | 0.165
NCI-H1437 | 0.492
NCI-H1755 | 0.769
NCI-H2023 | 0.585
HCC-15 | 0.394
NCI-H1793 | 0.469
PC-14 | 0.663
EKVX | 0.305
LC-2-ad | 0.895
NCI-H1944 | 0.393
NCI-H1975 | 0.349
RERF-LC-KJ | 0.867
NCI-H358 | 0.131
NCI-H650 | 1.15

Same assay, conditions: first compound 1.28 µM

Cell Line | relative viability
NCI-H460 | 0.058
NCI-H2347 | 0.225
SK-LU-1 | 0.336
NCI-H1395 | 0.667
201T | 0.585
NCI-H1915 | 0.241
HCC-827 | 0.286
LXF-289 | 0.811
NCI-H23 | 0.226
NCI-H647 | 0.169
CAL-12T | 0.326
NCI-H1651 | 0.771
EPLC-272H | 0.24
NCI-H2228 | 0.377
NCI-H1792 | 0.348
NCI-H1355 | 0.447
NCI-H3122 | 0.162
NCI-H1437 | 0.33
NCI-H1755 | 0.745
NCI-H2023 | 0.454
HCC-15 | 0.294
NCI-H1793 | 0.359
PC-14 | 0.569
EKVX | 0.236
LC-2-ad | 0.895
NCI-H1944 | 0.295
NCI-H1975 | 0.207
RERF-LC-KJ | 0.749
NCI-H358 | 0.115
NCI-H650 | 0.879

Compound: CO[C@@H]1[C@H](N(C)C(=O)c2ccccc2)C[C@H]2O[C@]1(C)n1c3ccccc3c3c4c(c5c6ccccc6n2c5c31)C(=O)NC4 [Midostaurin]
Experiment: relative viability (nuclei count vs DMSO), 5 days (fraction); higher = more cells survive
Settings: 0.01 µM
How it was run: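 Cells of lung cancer lines were placed in 1536-well plates and kept overnight at 37 °C. Pinning then delivered five library-drug doses (not always all listed), spaced by √10, onto plates anchored with vehicle, and the cells were left 5 days without changing medium. One step fixed, permeabilised and stained them with Hoechst, and MetaXpress counted nuclei in 4× images. Viability, as a median over plates, is treated-well nuclei divided by vehicle-well nuclei, with acceptance only at control CV below 25% and at least one doubling.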

Cell Line | relative viability
NCI-H460 | 1.04
NCI-H2347 | 1.12
SK-LU-1 | 0.976
NCI-H1395 | 0.919
201T | 0.984
NCI-H1915 | 0.951
HCC-827 | 1.02
LXF-289 | 1.03
NCI-H23 | 1.05
NCI-H647 | 0.919
CAL-12T | 1.05
NCI-H1651 | 0.95
EPLC-272H | 1.04
NCI-H2228 | 1.02
NCI-H1792 | 0.954
NCI-H1355 | 1
NCI-H3122 | 1.03
NCI-H1437 | 0.96
NCI-H1755 | 0.983
NCI-H2023 | 1.07
HCC-15 | 1.05
NCI-H1793 | 1.16
PC-14 | 0.995
EKVX | 0.991
LC-2-ad | 0.97
NCI-H1944 | 0.963
NCI-H1975 | 0.888
RERF-LC-KJ | 1.02
NCI-H358 | 0.949
NCI-H650 | 0.779

Same assay, conditions: 0.03162 µM

Cell Line | relative viability
NCI-H460 | 1.01
NCI-H2347 | 0.97
SK-LU-1 | 1.05
NCI-H1395 | 0.977
201T | 0.918
NCI-H1915 | 0.946
HCC-827 | 1.04
LXF-289 | 1.01
NCI-H23 | 0.962
NCI-H647 | 0.88
CAL-12T | 0.882
NCI-H1651 | 1
EPLC-272H | 0.944
NCI-H2228 | 0.969
NCI-H1792 | 0.697
NCI-H1355 | 0.948
NCI-H3122 | 0.962
NCI-H1437 | 0.999
NCI-H1755 | 0.983
NCI-H2023 | 0.893
HCC-15 | 0.902
NCI-H1793 | 0.848
PC-14 | 0.988
EKVX | 0.886
LC-2-ad | 0.936
NCI-H1944 | 0.987
NCI-H1975 | 0.971
RERF-LC-KJ | 1.01
NCI-H358 | 0.93
NCI-H650 | 0.844

Same assay, conditions: 0.1 µM

Cell Line | relative viability
NCI-H460 | 0.997
NCI-H2347 | 1.06
SK-LU-1 | 1.02
NCI-H1395 | 0.88
201T | 1
NCI-H1915 | 0.951
HCC-827 | 0.972
LXF-289 | 0.973
NCI-H23 | 0.791
NCI-H647 | 0.962
CAL-12T | 0.921
NCI-H1651 | 1.01
EPLC-272H | 0.93
NCI-H2228 | 1.22
NCI-H1792 | 0.929
NCI-H1355 | 1.09
NCI-H3122 | 0.95
NCI-H1437 | 0.972
NCI-H1755 | 0.962
NCI-H2023 | 0.922
HCC-15 | 1.05
NCI-H1793 | 0.89
PC-14 | 0.963
EKVX | 0.95
LC-2-ad | 0.957
NCI-H1944 | 0.931
NCI-H1975 | 0.878
RERF-LC-KJ | 1.04
NCI-H358 | 1.08

Reference: the supplement of paper PMC10307832
